Data on nine compounds can be found in PubChem BioAssay (NCI).

Structures are written as SMILES.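 Exposure lasted 48 hours, with cells grown in 96-well plates and compounds tested at five concentrations. GI50 is the concentration that inhibits growth by half. The concentration for full growth arrest is given as TGI.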 Bounds are passed on as bounds.

Common to all, as to assay: NCI tumour cell line growth inhibition, 48 h
The subject of assay [1] is UO-31 renal.
Assay [2] has as its system SK-MEL-2 melanoma.
Assay [3] concerns BT-549 breast.
In assay [4] the test system is CAKI-1 renal.
Assay [5] relates to OVCAR-3 ovarian.
Assay [6] deals with NCI-H460 lung.
Assay [7] has as its system SK-MEL-5 melanoma.
Assay [8] relates to SF-295 CNS.
Assay [9] concerns UACC-257 melanoma.
For assay [10], the system named is NCI-H522 lung.

Take `O=S(=O)(/N=c1/scc(-c2ccccc2)n1-c1ccccc1)c1ccc(N2N=C3c4ccccc4CC3C2c2cccs2)cc1` (stereo not given): the GI50 was > 100 µM in assay [1]; > 100 µM in assay [2]; 47.5 µM in assay [3]; 73 µM in assay [4]; > 100 µM in [5]; 95.1 µM in assay [6]. In addition, the GI50 in assay [7] was 48 µM; in [8] it was 54.5 µM; in assay [9], > 100 µM; in assay [10] it was 61.9 µM. Also, the TGI in assay [1], in [2], in assay [3], in assay [4], in assay [5] and in assay [6] was > 100 µM in each case. Besides, the TGI in assay [7], in [8], in [9] and in assay [10] was > 100 µM throughout.
Take `CCN(CC)C1CCC(Nc2c(C(C)=O)cnc3ccc(-c4ccc(O)c(Cl)c4)cc23)CC1` (stereo not given): the GI50 in [1] is 0.425 µM; in assay [2] it was 4.15 µM; in assay [3], 1.91 µM; in assay [4] it was 0.376 µM; in [5], 0.38 µM; in [6], 0.311 µM. Moreover, the GI50 was 0.782 µM in assay [7], 4.46 µM in [8], 2.77 µM in assay [9] and 0.331 µM in [10]. The TGI was > 36.8 µM in assay [1]; 28.2 µM in [2]; 5.89 µM in assay [3]; 10.8 µM in assay [4]; 3.15 µM in assay [5]; 1.87 µM in [6]. Moreover, the TGI worked out at 4.55 µM in assay [7], 24.9 µM in assay [8], 18.3 µM in assay [9] and 1.71 µM in assay [10].
Take `CCOc1cccc(-c2nc(N)nc(Nc3ccccc3SSc3ccccc3Nc3nc(N)nc(-c4cccc(OCC)c4)n3)n2)c1`: the GI50 in [1] was 1.68 µM; in assay [2], 6.12 µM; in assay [3] it was 4.97 µM; in assay [4], 3.29 µM; in assay [5], 5.37 µM; in assay [6] it was 3.03 µM. The GI50 in assay [7] is 6.8 µM; in assay [8], 3.92 µM; in assay [9], > 100 µM; in assay [10] it was 7.77 µM. Further, the TGI is 3.16 µM in assay [1]; > 100 µM in [2]; > 100 µM in [3]; 28.3 µM in assay [4]; > 100 µM in [5]; > 100 µM in [6]. Further, the TGI is > 100 µM in [7], > 100 µM in assay [8], > 100 µM in [9] and 48.9 µM in [10].
In the case of `CC(=O)Nc1ccc(COC(O)CN2CCCCC2)cc1[N+](=O)[O-]` (stereo not given), the TGI in assay [1], in assay [2], in [3], in assay [4], in assay [5] and in assay [6] was > 100 µM in each case. Moreover, the TGI in assay [7], in assay [8], in [9] and in assay [10] was > 100 µM in each case.
Turning to `COc1ccc(/C=C2\C=C(c3ccccc3)N(CCc3ccccc3)C2=O)cc1OC`, the GI50 in assay [1] was 4.35 µM; in assay [2], 18.5 µM; in [3], 12.4 µM; in assay [4], 7.53 µM; in [5], 4.82 µM; in assay [6], 7.34 µM. Moreover, the GI50 in [7] was 9.29 µM; in assay [8], 5.95 µM; in assay [9] it was 20.2 µM; in assay [10], 9.8 µM. Moreover, the TGI in assay [1] was 20.6 µM; in [2] it was > 100 µM; in [3], 49.9 µM; in assay [4], > 100 µM; in assay [5] it was 17.8 µM; in [6], 30.7 µM. Moreover, the TGI in [7] came to 94.5 µM; in assay [8], 24 µM; in assay [9], 86.8 µM; in assay [10], 36 µM.
On to `CC(=O)N1N=C2/C(=C/c3ccc(Cl)cc3)CC(C)CC2C1c1ccc(Cl)cc1` (stereo not given), for which the GI50 was 15.1 µM in [1]; 17.4 µM in assay [2]; 17 µM in assay [3]; 44.3 µM in [4]; 20 µM in assay [5]; 18.5 µM in assay [6]. For the same compound, the GI50 in assay [7] is 12.2 µM; in assay [8], 28.8 µM; in assay [9], 19.9 µM; in assay [10], 17.1 µM. The TGI in assay [1] is 30.5 µM; in assay [2], 36.7 µM; in [3] it was 34.2 µM; in assay [4], > 100 µM; in [5], 53.9 µM; in assay [6] it was 41.8 µM. The TGI in assay [7] was 25 µM; in assay [8], > 100 µM; in [9] it was 56.1 µM; in assay [10], 56.8 µM.
As to `CC(C)(C)c1c2c(c(C(C)(C)C)c3c1OCN(Cc1ccccc1)C3)OCN(Cc1ccccc1)C2`, the TGI in [1] was 35.4 µM; in assay [2], 51.5 µM; in [3], 39.4 µM; in assay [4], > 100 µM; in assay [5] it was 32.4 µM; in assay [6], 28.7 µM. The TGI in assay [7] was 21 µM; in assay [8], 51.6 µM; in [9], 29.1 µM; in assay [10], 23.2 µM.
With `CN(Cc1cc(Cl)cc(Cl)c1O)Cc1c(O)ccc2ccccc12`, the TGI in assay [1] is 34.7 µM; in [2], 35.8 µM; in assay [3], 32 µM; in assay [4], 33.8 µM; in assay [5] it was 35.7 µM; in assay [6], 35.1 µM. In addition, the TGI amounted to 32 µM in [7], 36.1 µM in assay [8], 34.6 µM in assay [9] and 29.6 µM in [10].
Turning to `Clc1ccc(-c2cc(-c3ccccc3)nc(NCCNc3ccnc4cc(Cl)ccc34)n2)cc1`, the GI50 in assay [1] is 1.38 µM; in assay [2] it was 1.73 µM; in assay [3] it was 1.68 µM; in assay [4] it was 1.47 µM; in assay [5], 1.77 µM; in assay [6] it was 1.95 µM. For the same compound, the GI50 in assay [7] is 1.74 µM; in assay [8], 1.8 µM; in assay [9], 2 µM; in [10], 1.81 µM. The TGI in assay [1] was determined as 2.86 µM; in assay [2] it was 3.23 µM; in assay [3], 3.25 µM; in assay [4], 2.93 µM; in assay [5] it was 3.36 µM; in assay [6], 3.85 µM. The TGI in assay [7] was found to be 3.2 µM; in [8] it was 3.52 µM; in [9], 4.09 µM; in assay [10], 3.78 µM.
